Measured values as given in patent publication US20060020014A1, “Method for treating nervous system disorders and conditions” (Wyeth, priority 2004, published 2006).
Several values for one entry are separate records, joined by “and”; a condition that tells them apart may be missing. Equal entries are not always repeated.

How the values were obtained:
[1] = tested on: SNL rats, tactile allodynia; assay: Spinal nerve ligation (SNL) model of neuropathic pain, tactile hypersensitivity (von Frey); format: in vivo, rat; conditions: 30 mg/kg IP, 30-300 minutes after administration
Source text: Subjects. Male Sprague-Dawley rats (Indianapolis, Ind.) weighing 150 to 200 g at time of arrival, were individually housed in wire cages in a climate-controlled room. A 12-hour light/dark cycle (lights on at 0630) was in effect, and food and water were available ad libitum.
Surgery—Spinal Nerve Ligation. Rats were anesthetized with 3.5% halothane in O2 at 1 L/min and maintained with 1.5% halothane in O2 during surgery. Ligation of the L5 and L6 nerves was produced by an incision through the left paraspinal muscles. The left L5 and L6 spinal nerves were isolated adjacent to the vertebral column and ligated tightly with 6-0 silk suture just distal to the dorsal root ganglion. The wound was closed in layers using 4-0 silk suture and wound clips. Testing began 7 days after surgery.
Assessment of tactile hypersensitivity. […] Baseline tactile sensitivity was assessed using a series of calibrated von Frey monofilaments (Stoelting; Wood Dale, Ill.) 0 to 3 days before surgery. […] The ability of a single dose of test compound to reverse established hypersensitivity was assessed using a time course procedure. […]
Results are presented as the 50% threshold values (50% threshold in g force) estimated by the Dixon non-parametric test. […] Significant main effects were analyzed further by subsequent least significant difference analysis. […]

[2] = target: T1, human serotonin transporter (hSERT) (Homo sapiens, UniProt P31645); assay: Serotonin (5-HT) uptake assay in JAR cells (hSERT function uptake); format: cell-based; conditions: [3H]5-HT uptake
T1 construct: The methods for 5-HT functional reuptake using the JAR cell line were modified using a previous literature report; host or cells: JAR (human placental choriocarcinoma), staurosporine-stimulated
Method: The methods for 5-HT functional reuptake using the JAR cell line were modified using a previous literature report. […] On day 2, cells were stimulated with staurosporine (40 nM) to increase the expression of the 5-HT transporter. On day 3, cells were removed from the cell incubator two hours prior to assay and maintained at room temperature to equilibrate the growth medium to ambient oxygen concentration. […] Twenty-five microliters of assay buffer (maximum 5-HT uptake) or test compound were added directly to triplicate wells containing cells in 200 μl of assay buffer. The cells were incubated with the compound for 10 minutes (37° C.). […] The cells were incubated with the reaction mixture for 5 minutes at 37° C. The 5-HT uptake reaction was terminated by decanting the assay buffer.

[3] = tested on: OVX rats, tail skin temperature (TST); assay: Telemetry rat model of ovariectomy-induced thermoregulatory dysfunction (tail skin temperature); format: in vivo; conditions: 30 mg/kg, sc; p<0.05 compared to vehicle control
[4] = tested on: OVX rats, tail skin temperature (TST); assay: as above; format: in vivo; conditions: 30 mg/kg sc; for Duration: duration of effect on TST; for Onset: onset of action on TST
Source text: This model has been modified from a previously reported protocol describing estrogen regulation of diurnal tail skin temperature (TST) patterns (Berendsen, et al., European Journal of Pharmacology, 2001, 419(1): 47-54). […] A temperature and physical activity transmitter (PhysioTel TA10TA-F40, Data Sciences International) was implanted subcutaneously in the dorsal scapular region and the tip of the temperature probe was tunneled subcutaneously 2.5 cm beyond the base of the tail. After a 7-day recovery period, TST readings were continuously recorded for the remainder of the study. Tail skin temperature readings were collected from each animal every 5 minutes with values obtained over a 10 second sampling period. The day before test day, an average baseline TST value was calculated for each animal by averaging temperature readings recorded during the 12 hour active (dark) phase. In these studies, animals were dosed approximately 40 minutes prior to the onset of dark cycle.
Statistical analysis: Evaluation of a compound's ability to restore normal lowering of TST in the telemetry model was analyzed using hourly TST values calculated for each animal by averaging the 12 temperature readings obtained every 5 minutes over that recording time. To analyze ΔTST in the telemetry model, a two factors repeated measure ANOVA was performed. The model used for analysis was ΔTST=GRP (group)+HR (hours)+GRP*HR+BASELINE. Thus, the reported least squares means are the expected mean values as if both groups had the same baseline value. Post-hoc tests of hourly GRP*HR samples are t-tests of the difference between groups for each hour. To be conservative, a result was not considered significant unless the p-value was <0.025. All analyses were performed using SAS PROC MIXED (SAS, Carey, N.C.).
Rats were injected subcutaneously with vehicle (2%Tween/0.5% methylcellulose) or 30 mg/kg, sc test compound dissolved in 2%Tween/0.5% methylcellulose. The effect of test compound is measured by evaluating the following parameters in this model: onset of action, duration of effect on TST, maximal change in TST and mean change in TST over the duration of the compound effect.

hNET = hNET (Homo sapiens, UniProt P23975); assay: hNET binding
hSERT = hSERT (Homo sapiens, UniProt P31645); assay: hSERT binding
[5] = target: human norepinephrine transporter (hNET) (Homo sapiens, UniProt P23975); assay: cell-based; conditions: hNET function uptake (EC50 in nm), MDCK-Net6 cells, [3H]NE uptake
Method: Test compounds were prepared in DMSO (10 mM) and diluted in assay buffer according to test range (1 to 10,000 nM). Twenty-five microliters of assay buffer (maximum NE uptake) or test compound were added directly to triplicate wells containing cells in 200 μl of assay buffer. […] To initiate the NE uptake, [^3H]NE diluted in assay buffer (120 nM final assay concentration) was delivered in 25 μl aliquots to each well and the plates were incubated for 5 minutes (37° C.).

Sequence of human norepinephrine transporter (hNET) (P23975 whole entry): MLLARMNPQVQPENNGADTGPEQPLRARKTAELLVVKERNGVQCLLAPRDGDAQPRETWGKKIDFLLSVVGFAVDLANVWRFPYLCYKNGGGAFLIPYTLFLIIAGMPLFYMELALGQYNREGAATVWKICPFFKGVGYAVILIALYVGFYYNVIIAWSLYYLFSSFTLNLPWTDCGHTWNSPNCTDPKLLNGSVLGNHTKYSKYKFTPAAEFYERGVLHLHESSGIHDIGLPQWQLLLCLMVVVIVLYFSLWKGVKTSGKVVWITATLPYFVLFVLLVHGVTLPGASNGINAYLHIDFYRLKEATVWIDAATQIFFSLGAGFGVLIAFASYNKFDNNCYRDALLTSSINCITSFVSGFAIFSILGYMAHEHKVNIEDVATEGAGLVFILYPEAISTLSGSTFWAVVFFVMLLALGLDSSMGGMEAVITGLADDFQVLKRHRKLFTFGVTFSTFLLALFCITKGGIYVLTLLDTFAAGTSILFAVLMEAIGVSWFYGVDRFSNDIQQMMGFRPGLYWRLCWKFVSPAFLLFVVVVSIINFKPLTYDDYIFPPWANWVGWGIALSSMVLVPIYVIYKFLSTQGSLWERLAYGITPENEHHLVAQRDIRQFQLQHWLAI
Sequence of hNET (P23975 whole entry): as above
T1 sequence (P31645 whole entry): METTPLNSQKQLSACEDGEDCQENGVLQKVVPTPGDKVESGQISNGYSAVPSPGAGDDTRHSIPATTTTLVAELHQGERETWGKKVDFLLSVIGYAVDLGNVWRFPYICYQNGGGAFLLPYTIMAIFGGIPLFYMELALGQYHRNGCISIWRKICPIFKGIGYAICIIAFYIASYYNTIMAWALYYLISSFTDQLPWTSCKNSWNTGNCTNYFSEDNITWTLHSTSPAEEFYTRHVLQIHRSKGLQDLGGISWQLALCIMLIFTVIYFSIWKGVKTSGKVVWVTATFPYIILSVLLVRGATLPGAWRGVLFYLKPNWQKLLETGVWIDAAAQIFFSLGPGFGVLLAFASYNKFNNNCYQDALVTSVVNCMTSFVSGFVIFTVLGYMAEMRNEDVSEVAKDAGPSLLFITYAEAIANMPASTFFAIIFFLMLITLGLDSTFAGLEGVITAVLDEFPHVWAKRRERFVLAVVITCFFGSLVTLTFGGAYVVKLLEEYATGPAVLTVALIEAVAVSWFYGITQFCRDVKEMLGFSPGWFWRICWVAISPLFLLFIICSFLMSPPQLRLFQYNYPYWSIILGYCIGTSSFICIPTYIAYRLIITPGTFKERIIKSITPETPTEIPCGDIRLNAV
Sequence of hSERT (P31645 whole entry): as above

EC50 [2] [µM] | hNET binding (% I @ 1 μM) (hNET) [% I] | hSERT binding (% I @ 1 μM) (hSERT) [% I] | EC50 [5] | Structure (SMILES) | Reversal of tactile allodynia in the SNL neuropathic pain model [1] | Restoration of normal TST in OVX-induced thermoregulatory dysfunction telemetry model [3] | Activity Index [4] [h] | Duration [4] [h] | Onset [4] [h]
 |  |  |  | Clc1ccc(C23CNCC2C3)cc1Cl (racemic) [Racemic 1-(3,4-dichlorophenyl)-3-azabicyclo[3.1.0]hexane, 1-(3,4-dichlorophenyl)-3-azabicyclo[3.1.0]hexane] | significantly reverses tactile allodynia |  |  |  | 
0.736 | 71.8 | 42.8 | 0.265 µM and 0.426 µM | Cc1ccc(C23CNCC2C3)cc1 (racemic) [Racemic 1-(4-methylphenyl)-3-azabicyclo[3.1.0]hexane, 1-(4-methylphenyl)-3-azabicyclo[3.1.0]hexane] |  | restores normal TST | -10.6 | 3.5 | 0.5
 |  |  |  | Cc1ccc(C23CNCC2C3)cc1 (single isomer, unassigned; (+)) [(+)-1-(4-methylphenyl)-3-azabicyclo[3.1.0]hexane] |  | restores normal TST | -2.99 | 3.5 | 0.5
